Consider one molecule from US20250221932A1, “IMMUNE ENHANCEMENT OF CANCER TREATMENT” (Spark Therapeutics, Inc., priority 2022, published 2025).

Experiment [1] relates to serum cytokines/chemokines. In words: Serum cytokine levels 4 hours after dosing in the AML model. It counts as in vivo, mice (C57BL/6). The following applies: 4 hours after first i.v. dose, 50 μg. As for the experimental part:
(§1) Three days post-tumor cell injection, treatment (vehicle, DNA-LNP (10 μg), ADU-S100 (50 μg)) was provided by 100 μL i.v. administration given three times (day 0, 3, 6). Vehicle was made of 20% Glucose/PBS solution. LNP composition (in mole %) was Lipid 9, ˜50% (Lipid 9 is further described in Section I.A. supra and Sabnis et al., (2018) Molecular Therapy 26:6, 1509-1519); C14-PEG2000, ˜1.5%; cholesterol, ˜38.5%; and distearoylphosphatidylcholine (DSPC), ˜10%. ADU-S100 is a STING agonist (MedChemExpress).
(§2) Serum was collected 4 hours after the first dose for cytokine/chemokine analyses. Mice (n=8) were observed daily for abnormalities and euthanized individually when the animal reached the humane endpoint.
Three days post-tumor cell injection, treatment (vehicle, DNA-LNP (5 μg), DNA-LNP2 (5 μg)) was provided by 100 μL i.v. administration given three times (day 0, 3, 6). Serum was collected 4 hours after the first dose for cytokine/chemokine analyses. Mice (n=8) were observed daily for abnormalities and euthanized individually when the animal reached the humane endpoint.

Another experiment concerns C1498 cells. In words: Acute myeloid leukemia (AML) model, survival. It counts as in vivo, mice (C57BL/6). The following applies: 50 μg i.v. day 0, 3, 6; FIG. 9. As for the experimental part:
The ability of nanoparticle dsDNA delivery to inhibit leukemia was evaluated in a mouse model for acute myeloid leukemia (AML). The AML model was established by intravenously (i.v.) injecting C57BL/6 mice with 1×10^6 C1498 cells. (See Zhang et al., Blood 2009; 114 (8): 1545-1552 and Curran et al., 2016, Cell Reports 15, 2357-2366).
as §1, §2
The ability of nanoparticle dsDNA delivery to inhibit leukemia was evaluated in the AML mouse model described in Example 5. Three days post-tumor cell injection, administration of vehicle, LNP (same amount of LNP as used in 5 μg DNA-LNP), DNA-LNP (1 μg), DNA-LNP (5 μg) was provided by 100 μL i.v. given three times (day 0, 3, 6). […]

With `Nc1ncnc2c1ncn2[C@@H]1O[C@@H]2COP(=O)([S-])O[C@@H]3[C@H](O)[C@@H](COP([O-])(=S)O[C@H]2[C@H]1O)O[C@H]3n1cnc2c(N)ncnc21.[Na+].[Na+]` (stereo partly shown) [ADU-S100], in experiment [1], the “Serum level GRO alpha, Average” value is 134 pg/mL; the “Serum level IFN alpha, Average” value amounted to 1775 pg/mL; the “Serum level IFN beta, Average” value came to 2819 pg/mL; the “Serum level IFN gamma, Average” value stood at 7 pg/mL. Further, in experiment [1], the “Serum level IL-6, Average” value worked out at 2617 pg/mL; the “Serum level IL-18, Average” value was 150 pg/mL; the “Serum level MCP-1, Average” value stood at 5571 pg/mL; the “Serum level MIP-1 beta, Average” value stood at 640 pg/mL. The “Serum level TNF alpha, Average” value in experiment [1] turned out to be 732 pg/mL. Besides, the “survival in the AML model” value with C1498 cells was “increased survival”.
